Patent US9233965B2, “3,4-dihydropyrrolo[1,2-A]pyrazine-2,8(1H)-dicarboxamide derivatives, preparation thereof and therapeutic use thereof for diseases involving casein kinase 1 epsilon and/or casein kinase 1 delta” (SANOFI, priority 2010, dated 2016)

Experiments:
[1] = biological target: casein kinase 1 epsilon (CK1 epsilon) (Homo sapiens (Human), UniProt P49674); experiment: Test A: inhibitory activity on CK1 epsilon, casein phosphorylation assay on ATP-33P filter plate; assay type: biochemical; settings: IC50 values or IC50 ranges (result of several experiments), ATP 10 μM final
Sequence of casein kinase 1 epsilon (CK1 epsilon) (P49674 whole entry): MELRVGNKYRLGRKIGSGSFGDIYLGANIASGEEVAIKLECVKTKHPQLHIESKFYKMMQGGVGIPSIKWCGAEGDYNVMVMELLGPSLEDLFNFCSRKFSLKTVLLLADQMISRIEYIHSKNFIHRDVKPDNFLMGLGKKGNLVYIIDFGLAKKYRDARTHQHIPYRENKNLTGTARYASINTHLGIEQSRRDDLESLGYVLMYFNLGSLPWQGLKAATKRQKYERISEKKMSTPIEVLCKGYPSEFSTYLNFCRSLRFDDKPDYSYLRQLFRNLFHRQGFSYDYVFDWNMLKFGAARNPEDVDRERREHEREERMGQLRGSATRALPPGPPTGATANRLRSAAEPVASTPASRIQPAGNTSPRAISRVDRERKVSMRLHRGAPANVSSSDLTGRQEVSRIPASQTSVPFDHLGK
Description: The capacity of the compounds of the invention to inhibit the phosphorylation of casein by casein kinase 1 epsilon and/or delta may be evaluated according to the procedures described in document US 2005/0 131 012.
Test A: Inhibitory Activity on CK1 Epsilon Measured by Assay on an ATP-^33P Filter Plate
The effect of the compounds on inhibition of the phosphorylation of casein by the enzyme casein kinase 1 epsilon (CK1 epsilon) is measured, using a casein assay via filtration of ATP-^33P in vitro.
Casein kinase 1 epsilon (0.58 mg/ml) is obtained via fermentation and purification processes performed according to methods that are well known to those skilled in the art, or may also be obtained from Invitrogen Corporation™ (human CK1 epsilon).
The compounds are tested at five different concentrations so as to generate IC50 values, i.e. the concentration at which a compound is capable of inhibiting the enzymatic activity by 50%, or alternatively the percentage of inhibition at a concentration of 10 micromolar.
“U”-bottomed Falcon plates are prepared by placing 5 μL of solutions of the compounds according to the invention at concentrations of 10, 1, 0.1, 0.01 or 0.001 μM in different wells. The solutions of the compounds according to the invention at these various concentrations are prepared by diluting in a test buffer (Tris 50 mM pH 7.5, MgCl2 […], DTT 2 mM and EGTA 1 mM) a stock solution in DMSO at a concentration of 10 mM. Next, 5 μL of dephosphorylated casein are added to a final concentration of 0.2 μg/μL, 20 μL of CK1 epsilon to a final concentration of 3 ng/μL, and 20 μL of ATP-^33P to a final concentration of 0.02 μCi/μL mixed with cold ATP (10 μM final—approximately 2×10^6 CPM per well). The final total test volume per well is equal to 50 μL.
The “U”-bottomed Falcon® test plate mentioned above is vortexed, and then incubated at room temperature for 2 hours. After 2 hours the reaction is stopped by adding an ice-cold solution of 65 μL of cold ATP (2 mM) prepared in test buffer.
100 μL of the reaction mixture are then transferred from the “U”-bottomed Falcon® plate into Millipore® MAPH filter plates, preimpregnated with 25 μL of ice-cold 100% TCA.
The Millipore MAPH filter plates are agitated gently and are left to stand at room temperature for at least 30 minutes to precipitate the proteins.
After 30 minutes, the filter plates are sequentially washed and filtered with 2×150 μL of 20% TCA, 2×150 μL of 10% TCA and 2×150 μL of 5% TCA (6 washes in total per plate/900 μL per well).
The plates are left to dry overnight at room temperature. Next, 40 μL of Microscint-20 Packard® scintillation liquid are added per well and the plates are closed in a leaktight manner. The radiation emitted by each well is then measured for 2 minutes in a TopCount NXT Packard® scintillation counter, in which the values of CPM/well are measured.
The percentage inhibition of the capacity of the enzyme to phosphorylate the substrate (casein) is determined for each concentration of test compound. These inhibition data expressed as percentages are used to calculate the IC50 value for each compound compared with the controls.
The kinetic studies determined the KM value for ATP as being 21 μM in this test system.
Table 2 below gives the IC50 values or the IC50 inhibition ranges (result of several experiments) for the phosphorylation of Casein Kinase 1 Epsilon for a number of compounds according to the invention.

Row | IC50 [1] [nM] | melting point [°C] | Compound
1 | 11 to 13 | 181 to 185 | NC(=O)c1c(-c2ccccc2)c(Cl)n2c1CN(C(=O)NC1CCOC1)CC2 (stereo not shown) [Compound 92, 6-chloro-7-phenyl-N^2-(tetrahydrofuran-3-yl)-3,4-dihydropyrrolo[1,2-a]pyrazine-2,8(1H)-dicarboxamide]
2 | 5 to 28 | 213 to 215 | CC(C)(C)NC(=O)N1CCn2c(F)c(-c3ccccc3)c(C(N)=O)c2C1 [Compound 58, N^2-tert-butyl-6-fluoro-7-phenyl-3,4-dihydropyrrolo[1,2-a]pyrazine-2,8(1H)-dicarboxamide]
3 | 1 to 11 | 205 to 207 | CC(C)(CO)CNC(=O)N1CCn2c(Cl)c(-c3cccc(F)c3)c(C(N)=O)c2C1 [Compound 73, 6-chloro-7-(3-fluorophenyl)-N^2-(3-hydroxy-2,2-dimethylpropyl)-3,4-dihydropyrrolo[1,2-a]pyrazine-2,8(1H)-dicarboxamide]
4 | 1 to 4 | 183 to 187 | CC(C)(NC(=O)N1CCn2c(Cl)c(-c3cccc(F)c3)c(C(N)=O)c2C1)C(F)(F)F [Compound 79, 6-chloro-7-(3-fluorophenyl)-N^2-(1,1,1-trifluoro-2-methylpropan-2-yl)-3,4-dihydropyrrolo[1,2-a]pyrazine-2,8(1H)-dicarboxamide]
5 | 1 to 5 | 196 to 198 | CC(C)(C)NC(=O)N1CCn2c(Cl)c(-c3cccc(F)c3)c(C(N)=O)c2C1 [Compound 67, N^2-tert-butyl-6-chloro-7-(3-fluorophenyl)-3,4-dihydropyrrolo[1,2-a]pyrazine-2,8(1H)-dicarboxamide]
6 | 122 | 203 to 205 | NC(=O)c1c(-c2cccc(OC(F)(F)F)c2)c(Cl)n2c1CN(C(=O)NC1CCOCC1)CC2 [Compound 97, 6-chloro-N^2-(tetrahydro-2H-pyran-4-yl)-7-[3-(trifluoromethoxy)phenyl]-3,4-dihydropyrrolo[1,2-a]pyrazine-2,8(1H)-dicarboxamide]
7 | 4 to 5 | 204 to 206 | NC(=O)c1c(-c2cccc(F)c2)c(Cl)n2c1CN(C(=O)NCC1(CO)CC1)CC2 [Compound 75, 6-chloro-7-(3-fluorophenyl)-N^2-{[1-(hydroxymethyl)cyclo-propyl]methyl}-3,4-dihydropyrrolo[1,2-a]pyrazine-2,8(1H)-dicarboxamide]
8 | 8 to 13 | – | CC(C)CNC(=O)N1CCn2c(Cl)c(-c3ccccc3)c(C(N)=O)c2C1 [Compound 59, 6-chloro-N^2-iso-butyl-7-phenyl-3,4-dihydropyrrolo[1,2-a]pyrazine-2,8(1H)-dicarboxamide]
9 | 532 | – | CC(C)(C)NC(=O)N1CCn2c(c(C(N)=O)c(-c3ccc(NS(C)(=O)=O)cc3)c2C2CC2)C1 [Compound 29, N^2-tert-butyl-6-cyclo-propyl-7-{4-[(methylsulfonyl)amino]phenyl}-3,4-dihydropyrrolo[1,2-a]pyrazine-2,8(1H)-dicarboxamide]
10 | 2 to 16 | – | NC(=O)c1c(-c2cccc(F)c2)c(Cl)n2c1CN(C(=O)NCCCC(F)(F)F)CC2 [Compound 81, 6-chloro-7-(3-fluorophenyl)-N^2-(4,4,4-trifluorobutyl)-3,4-dihydropyrrolo[1,2-a]pyrazine-2,8(1H)-dicarboxamide]
11 | 4 to 11 | – | NC(=O)c1c(-c2cccc(F)c2)c(Cl)n2c1CN(C(=O)NC1CCS(=O)(=O)C1)CC2 (stereo not shown) [Compound 102, 6-chloro-N^2-(1,1-dioxydotetrahydrothiophen-3-yl)-7-(3-fluorophenyl)-3,4-dihydropyrrolo[1,2-a]pyrazine-2,8(1H)-dicarboxamide]
12 | 84 | – | CC(C)(C)NC(=O)N1CCn2c(c(C(N)=O)c(-c3ccc(C(F)(F)F)cc3)c2C2CC2)C1 [Compound 24, N^2-tert-butyl-6-cyclo-propyl-7-[4-(trifluoromethyl)phenyl]-3,4-dihydropyrrolo[1,2-a]pyrazine-2,8(1H)-dicarboxamide]
13 | 963 | – | CC(C)(C)NC(=O)N1CCn2c(c(C(N)=O)c(-c3ccc(C(=O)NC4CC4)cc3)c2C2CC2)C1 [Compound 18, N^2-tert-butyl-6-cyclo-propyl-7-[4-(cyclo-propylcarbamoyl)phenyl]-3,4-dihydropyrrolo[1,2-a]pyrazine-2,8(1H)-dicarboxamide]
14 | 42 | – | CC(C)(C)NC(=O)N1CCn2c(c(C(N)=O)c(-c3ccc(OCc4ccc(F)cc4)cc3)c2C2CC2)C1 [Compound 41, N^2-tert-butyl-6-cyclo-propyl-7-{4-[(4-fluorobenzyl)oxy]phenyl}-3,4-dihydropyrrolo[1,2-a]pyrazine-2,8(1H)-dicarboxamide]
15 | 9 to 24 | – | NC(=O)c1c(-c2ccccc2)c(Cl)n2c1CN(C(=O)NC1CCS(=O)(=O)C1)CC2 (stereo not shown) [Compound 101, 6-chloro-N^2-(1,1-dioxydotetrahydrothiophen-3-yl)-7-phenyl-3,4-dihydropyrrolo[1,2-a]pyrazine-2,8(1H)-dicarboxamide]
16 | 221 to 273 | – | COc1ccc(-c2c(C(N)=O)c3n(c2C2CC2)CCN(C(=O)NC(C)C)C3)cc1 [Compound 8, 6-cyclo-propyl-7-(4-methoxyphenyl)-N^2-(iso-propyl)-3,4-dihydropyrrolo[1,2-a]pyrazine-2,8(1H)-dicarboxamide]
17 | 2 | – | NC(=O)c1c(-c2cccc(F)c2)c(Cl)n2c1CN(C(=O)NC1CCC(O)(C(F)(F)F)CC1)CC2 (stereo not drawn) [Compound 85, trans-6-chloro-7-(3-fluorophenyl)-N^2-(4-hydroxy-4-trifluoromethyl-cyclo-hexyl)-3,4-dihydropyrrolo[1,2-a]pyrazine-2,8(1H)-dicarboxamide]
18 | 847 | – | CC(C)(C)NC(=O)N1CCn2c(c(C(N)=O)c(-c3cccc(OCC4CC4)c3)c2C2CC2)C1 [Compound 33, N^2-tert-butyl-6-cyclo-propyl-7-[3-(cyclo-propylmethoxy)phenyl]-3,4-dihydropyrrolo[1,2-a]pyrazine-2,8(1H)-dicarboxamide]
19 | 12 to 35 | – | CC(C)(C)NC(=O)N1CCn2cc(-c3ccccc3)c(C(N)=O)c2C1 [Compound 1, N^2-tert-butyl-7-phenyl-3,4-dihydropyrrolo[1,2-a]pyrazine-2,8(1H)-dicarboxamide]
20 | < 1 | – | CON=C1CCC(NC(=O)N2CCn3c(Cl)c(-c4cccc(F)c4)c(C(N)=O)c3C2)CC1 (stereo not drawn) [Compound 86, trans-6-chloro-7-(3-fluorophenyl)-N^2-(4-methoxyimino-cyclohexyl)-3,4-dihydropyrrolo[1,2-a]pyrazine-2,8(1H)-dicarboxamide]
21 | 3 to 5 | – | NC(=O)c1c(-c2ccccc2)c(Cl)n2c1CN(C(=O)NC1CC3CCC1C3)CC2 (stereo not shown) [Compound 88, N^2-(bicyclo[2.2.1]hept-2-yl)-6-chloro-7-phenyl-3,4-dihydropyrrolo[1,2-a]pyrazine-2,8(1H)-dicarboxamide]
22 | 23 | – | CC(C)(C)NC(=O)N1CCn2c(c(C(N)=O)c(-c3cccc(-n4cccn4)c3)c2C2CC2)C1 [Compound 27, N^2-tert-butyl-6-cyclo-propyl-7-[3-(1H-pyrazol-1-yl)phenyl]-3,4-dihydropyrrolo[1,2-a]pyrazine-2,8(1H)-dicarboxamide]
23 | 34 to 78 | – | Cc1c(-c2ccc(Oc3ccccc3)cc2)c(C(N)=O)c2n1CCN(C(=O)NC(C)(C)C)C2 [Compound 5, N^2-tert-butyl-6-methyl-7-(4-phenoxyphenyl)-3,4-dihydropyrrolo[1,2-a]pyrazine-2,8(1H)-dicarboxamide]
24 | 25 | – | NC(=O)c1c(-c2ccccc2)c(C2CC2)n2c1CN(C(=O)NCC1CCCCC1)CC2 [Compound 50, N^2-(cyclo-hexylmethyl)-6-cyclo-propyl-7-phenyl-3,4-dihydropyrrolo[1,2-a]pyrazine-2,8(1H)-dicarboxamide]
